# Experimental data reported in patent publication US6692928B1, “Methods for identifying cardiovascular agents” (New England Medical Center Hospitals, Inc., priority 1996, dated 2004).
# Like-named read-outs stand apart in the source and are kept apart here.
# Experiments:
# pERE-Luc reporter = pERE-Luc reporter in GH3B6 cells; assay type: cell-based, rat; details: same conditions (estrogen 10^−6M, 48 hours)
# VEGF expression [1] = assay: pmVEGF-Luc reporter in GH3B6 cells; assay type: cell-based, rat; details: estrogen 10^−6M, 48 hours
# From the text: (§1) One useful reporter construct is pmVEGF-Luc. In this reporter construct, a 1.6 kB fragment of genomic DNA located upstream of the murine vascular endothelial cell growth factor (VEGF) gene has been inserted into the pGL2-Basic luciferase reporter plasmid (Promega; Madison, Wis.). The 1.6 kB fragment includes the transcription start site, 1.2 kB of sequence upstream of the start site, and 0.4 kB of sequence downstream of the start site. Useful variants of this reporter plasmid can be made by deleting a portion of the murine VEGF control region. For example, pVEGF-Luc-Apa/Kpn is identical to pVEGF-luc except that 455 bp at the 5′ end of the 1.6 kB fragment have been removed; pVEGF-Luc-Mlu is identical to pVEGF-luc except that 768 bp at the 5′ end of the 1.6 kB fragment have been removed; and pVEGF-Luc-Sma is identical to pVEGF-luc except that 455 bp at the 5′ end of the 1.6 kB fragment have been removed. Similar reporter constructs can be created using upstream regulatory sequences from the human VEGF gene. For example, phVEGF-Luc is a reporter construct in which 5.1 kb genomic DNA upstream of the human VEGF coding sequence inserted into the pGL2-Basic luciferase reporter plasmid. This particular construct includes 3.4 kb of sequence upstream of the VEGF transcription start site and 1.7 kb untranslated sequence downstream of the transcription start site.
# VEGF expression [2] = assay: pmVEGF-Luc reporter in WB572 cells; assay type: cell-based, human; details: estrogen 10^−6M, 48 hours
# From the text: as §1
# [3] = estrogen replacement therapy, by as much as; cited from earlier work
# vascular injury = assay: Mouse carotid injury model, L-NAME and eNOS knockout studies; assay type: in vivo, mice
# From the text: Two endpoints were routinely analyzed. First, computerized morphometrics were collected to examine the extent of vascular injury by quantitating medial area measurements. Second, BrdU labeling of VSMC and endothelial cells that proliferated following the injury was quantitated, which required extensive immunohistochemical staining for (i) BrdU, (ii) smooth muscle α-actin, and (iii) Factor VIII-related antigen (endothelial cells).
# The studies may also be carried out in wild type mice and mice lacking ERα, ERβ, eNOS, iNOS, or nNOS, or in mice lacking a combination of these proteins. The level of NOS isoforms may be examined using isoform-specific antibodies.
# VEGF expression [4] = assay: VEGF expression in rat VSMC (A7r5 cells); assay type: cell-based
# VEGF gene [5] = assay: VEGF-luciferase reporter, transiently transfected HeLa cells; assay type: cell-based
# From the text: (§2) To study the role of estrogen on expression of the VEGF gene in vascular smooth muscle cells, human saphenous vein smooth muscle cells (HSVSMC) and HeLa cells were transiently transfected with a VEGF-luciferase reporter construct. In this reporter construct, expression of luciferase is under the control of a 1.2 kB fragment of the murine VEGF gene regulatory region. The cells were also transfected with an estrogen receptor α expression construct. All of the results described below have been normalized for transfection efficiency.
# PAEC = assay: Protein tyrosine phosphorylation in PAEC; assay type: cell-based
# Method: An immortalized PAEC line retains the ER-eNOS activation pathway completely and provides a useful reagent for identifying other members of the pathway. Experiments indicate that a number of proteins are rapidly tyrosine phosphorylated following exposure of PAEC to estrogen. This occurs within 5-10 minutes and includes a series of low molecular weight proteins (15-40 Kd), as well as several larger proteins.
# VEGF gene [6] = assay: VEGF-luciferase reporter, transiently transfected HSVSMC; assay type: cell-based, human; details: VEGF-luciferase + estrogen receptor α construct, 1 μM estrogen, n=12
# From the text: as §2
# [7] = tested on: endothelium-denuded aortic rings; assay: Mouse aortic vascular ring bioassay, phenylephrine-induced constriction; details: male mice
# From the text: An eight-chamber vascular ring bioassay system may be used to study vasomotion in vascular rings from mice. Vascular contraction and relaxation may be examined in endothelial-intact and endothelial-denuded mouse aortic vascular rings. […] The mouse aortic ring experiments may be carried out in rings from wild type, ERαKO and ERβKO animals.
# eNOS [8] = assay: eNOS activity in ovine pulmonary aortic endothelial cells (PAEC); assay type: cell-based; details: for basal eNOS activity: no E2
# From the text: (§3) Several molecular and pharmacologic interventions can disrupt this rapid ERα-eNOS signaling pathway.
# estrogen receptor = biological target: T1, estrogen receptor (Homo sapiens, UniProt P03372); assay: ERE-Luc reporter activation of the estrogen receptor in transfected cells; assay type: cell-based
# T1 construct: expressed in transfected cells; host or cells: PVEC, HSVSMC, human aortic VSMC, HeLa (transient transfection)
# T1 sequence (P03372 1-595): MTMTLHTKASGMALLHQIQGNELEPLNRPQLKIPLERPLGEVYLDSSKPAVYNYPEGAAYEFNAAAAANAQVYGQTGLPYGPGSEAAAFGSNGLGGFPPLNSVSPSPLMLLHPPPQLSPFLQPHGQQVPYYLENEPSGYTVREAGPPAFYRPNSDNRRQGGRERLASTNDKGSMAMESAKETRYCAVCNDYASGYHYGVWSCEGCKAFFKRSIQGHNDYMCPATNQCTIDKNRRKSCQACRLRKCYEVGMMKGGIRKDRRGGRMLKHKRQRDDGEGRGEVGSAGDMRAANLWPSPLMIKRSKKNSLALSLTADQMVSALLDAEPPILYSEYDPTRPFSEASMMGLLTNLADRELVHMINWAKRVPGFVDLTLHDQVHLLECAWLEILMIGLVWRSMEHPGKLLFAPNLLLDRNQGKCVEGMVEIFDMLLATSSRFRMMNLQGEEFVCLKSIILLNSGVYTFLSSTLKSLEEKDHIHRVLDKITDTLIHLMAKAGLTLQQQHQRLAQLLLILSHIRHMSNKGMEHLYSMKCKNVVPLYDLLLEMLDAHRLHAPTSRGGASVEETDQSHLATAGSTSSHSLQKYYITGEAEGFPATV
# Method: The cells were then cultured for 48 hours in serum-free medium in the absence or presence of EGF (100 ng/ml).
# human eNOS gene = assay: eNOS luciferase reporter in rat cardiomyocytes; assay type: cell-based; details: 1 nM E2, 48 hours
# From the text: (§4) ER-regulation of two cardiac target genes, iNOS and eNOS, were studied in transient transfection experiments using either an iNOS-luciferase reporter plasmid (containing 1.1 Kb of the 5′-flanking region of the human iNOS gene driving expression of the luciferase cDNA) or an eNOS luciferase reporter plasmid (containing 1.6 Kb of the 5′ flanking region of the human eNOS gene driving expression of the luciferase cDNA). […] In these experiments, E2 increased the abundance of iNOS protein (50+/−23-fold; n=3; p<0.05) as well as eNOS protein (15.7+/−4.3 fold; n=3; p<0.05).
# human iNOS gene = assay: iNOS-luciferase reporter in rat cardiomyocytes; assay type: cell-based; details: 1 nM E2, 48 hours
# From the text: as §4
# MAP kinase = MAP kinase activity in PAEC; assay type: cell-based, ovine; details: 5 minute exposure, 10^−8M E2
# From the text: as §3
# vascular injury response = details: 14 days after carotid injury, physiologic levels
# From the text: Vascular medial are increases and smooth muscle cell proliferation were quantitated 14 days following cartoid injury in ovariectomized female mice treated with vehicle or physiologic levels of 17-β estradiol.
# eNOS protein = eNOS protein level by immunoblotting; assay type: cell-based, rat; details: n=3
# From the text: as §4
# eNOS [9] = assay: eNOS activity in transfected COS 7 cells; assay type: cell-based
# From the text: In contrast, ERα and eNOS coexpression had no effect on basal (unstimulated) eNOS activity (102+/−33% of activity in sham-transfected cells (ERα(−)).
# iNOS protein = iNOS protein level by immunoblotting; assay type: cell-based, rat; details: n=3
# From the text: as §4
compound,measurement,setting,value
estrogen,activation of pERE-Luc reporter,pERE-Luc reporter,8 fold
same,effect on luciferase activity,VEGF expression [1],no effect
same,increase in luciferase activity,VEGF expression [2],1.8 fold
same,reduction of the incidence of coronary artery disease,[3],30-50%
same,protection against injury (medial area endpoint),"vascular injury; eNOS KO mice, ovariectomized female",still able to protect against injury
same,activation of VEGF expression,VEGF expression [4],did not activate VEGF expression
same,increase of luciferase expression,"VEGF gene [5]; HeLa cells co-transfected with estrogen receptor α expression plasmid, n=21",4.2±0.8 fold
same,effect on luciferase expression,"VEGF gene [5]; HeLa cells without estrogen receptor α, estrogen containing media",no effect
same,time of protein tyrosine phosphorylation after exposure,PAEC,5 to 10 min
same,increase of luciferase expression,VEGF gene [6],1.7±0.2 fold
COC(=O)[C@@H](N)CCCNC(=N)N[N+](=O)[O-] [L-NAME],effect on the 17β estradiol inhibition of contraction,[7],reversed the inhibition
same,effect on estrogen protection against vascular injury (medial area),"vascular injury; co-administration with estrogen, ovariectomized female mice",negated
herbamycin A,inhibition of acute eNOS response to E2,eNOS [8]; PAEC,completely inhibit
same,basal eNOS activity,eNOS [8]; PAEC,do not alter basal eNOS activity
COc1cccc(-c2cc(=O)c3ccccc3o2)c1N [PD98059],inhibition of acute eNOS response to E2,eNOS [8]; PAEC,completely inhibit
PDGF,estrogen receptor activation,"estrogen receptor; all cell types studied (PVEC, HSVSMC, human aortic VSMC, HeLa)",did not activate the estrogen receptor
O=c1c(-c2ccc(O)cc2)coc2cc(O)cc(O)c12 [genistein],inhibition of acute eNOS response to E2,eNOS [8]; PAEC,completely inhibit
same,basal eNOS activity,eNOS [8]; PAEC,do not alter basal eNOS activity
C[C@]12CC[C@@H]3c4ccc(O)cc4CC[C@H]3[C@@H]1CC[C@H]2O [17α-estradiol],eNOS activity,"eNOS [8]; PAEC, 10^−12 to 10^−6M",had no effect
"C[C@]12CC[C@@H]3c4ccc(O)cc4C[C@@H](CCCCCCCCC[S+]([O-])CCCC(F)(F)C(F)(F)F)[C@H]3[C@@H]1CC[C@@H]2O (stereo partly drawn) [ICI 182,780]",inhibition of E2 activation of eNOS reporter,human eNOS gene,blocked fully
same,inhibition of E2 activation of iNOS reporter,human iNOS gene,completely inhibited
same,inhibition of E2-induced increase in MAP kinase activity,MAP kinase,completely inhibited
same,inhibition of acute eNOS response to E2,eNOS [8]; PAEC,fully inhibited
same,inhibition of the enhanced eNOS response,eNOS [8]; PAEC overexpressing ER,inhibited completely
same,basal eNOS activity,eNOS [8]; PAEC,caused no change
EGF: epidermal growth factor,effect on luciferase activity,"estrogen receptor; HeLa cells, EGF 100 ng/ml, 48 hours, serum-free",no effect
same,increase in luciferase activity,"estrogen receptor; PVEC, HSVSMC and human aortic VSMC, EGF 100 ng/ml, 48 hours, serum-free",~3 fold
"C[C@]12CC[C@@H]3c4ccc(O)cc4CC[C@H]3[C@@H]1CC[C@@H]2O [E2, 17β-estradiol]",increase of eNOS reporter activity,human eNOS gene; n=9,6.9+/−0.06 fold
same,"vascular injury measures (medial area increase, smooth muscle cell proliferation)",vascular injury response; estrogen receptor α knockout ovariectomized female mice,markedly inhibited all measures of vascular injury
same,"vascular injury measures (medial area increase, smooth muscle cell proliferation)",vascular injury response; wild-type ovariectomized female mice,markedly inhibited all measures of vascular injury
same,increase in abundance of eNOS protein,eNOS protein,15.7+/−4.3 fold
same,eNOS activity,eNOS [9]; COS 7 cells transfected with eNOS alone,had no effect
same,increase in eNOS activity,"eNOS [9]; COS 7 cells transfected with eNOS and ERα, acute stimulation",> 3 fold
same,increase of iNOS reporter activity,human iNOS gene; n=9,8.1+/−0.02 fold
same,MAP kinase activity,MAP kinase,causes an increase in MAP kinase activity
same,phenylephrine-induced constriction,[7]; chronic (18h) treatment,inhibited contraction
same,increase in abundance of iNOS protein,iNOS protein,50+/−23 fold
same,eNOS activity,"eNOS [8]; PAEC, E2 10^−8M",stimulates eNOS activity
same,time to maximal eNOS stimulation,"eNOS [8]; PAEC, E2 10^−8M",≤ 5 min
CC/C(=C(\c1ccccc1)c1ccc(OCCN(C)C)cc1)c1ccccc1 [tamoxifen],inhibition of E2-induced increase in MAP kinase activity,MAP kinase,completely inhibited
same,inhibition of acute eNOS response to E2,eNOS [8]; PAEC,fully inhibited
same,basal eNOS activity,eNOS [8]; PAEC,caused no change
